Assay results from US7138361B2, “Herbicidal heterocycles” (E. I. du Pont de Nemours and Company, priority 2000, dated 2006).

Tests used:
Assay type in all cases: in vivo
[1] = tested on: Nightshade; experiment: Test C preemergence; details: scale 0 to 100, 0 no effect, 100 complete control
Description: (§1) Seeds of plant species selected from bermudagrass (Cynodon dactylon), Surinam grass (Brachiaria decumbens), cocklebur (Xanthium strumarium), corn (Zea mays), crabgrass (Digitaria sanguinalis), woolly cupgrass (Eriochloa villosa), giant foxtail (Setaria faberii), goosegrass (Eleusine indica), johnsongrass (Sorghum halepense), kochia (Kochia scoparia), lambsquarters (Chenopodium album), morningglory (Ipomoea hederacea), yellow nutsedge (Cyperus esculentus), pigweed (Amaranthus retroflexus), common ragweed (Ambrosia elatior), soybean (Glycine max) and velvetleaf (Abutilon theophrasti) were planted and treated preemergence with test chemicals formulated in a non-phytotoxic solvent mixture which included a surfactant.
(§2) At the same time, plants selected from these crop and weed species and also winter barley (Hordeum vulgare), blackgrass (Alopecurus myosuroides), canary grass (Phalaris minor), chickweed (Stellaria media), downy brome (Bromus tectorum), green foxtail (Setaria viridis), Italian ryegrass (Lolium multiflorum), wheat (Triticum aestivum), wild oat (Avena fatua) and windgrass (Apera spica-venti) were treated with postemergence applications of some of the test chemicals formulated in the same manner. Plants ranged in height from 2 to 18 cm (1- to 4-leaf stage) for postemergence treatments. Plant species in the flooded paddy test consisted of rice (Oryza saliva), smallflower flatsedge (Cyperus difformis), duck salad (Heteranthera limosa) and barnyardgrass (Echinochloa crus-galli) grown to the 2-leaf stage for testing. Treated plants and controls were maintained in a greenhouse for 12 to 14 days, after which time all species were compared to controls and visually evaluated. Plant response ratings, summarized in Table C, are based on a scale of 0 to 100 where 0 is no effect and 100 is complete control. A dash (-) response means no test result.

[2] = tested on: Surinam grass (Brachiaria decumbens); experiment: Test C preemergence; details: for Plant response rating, Surinam grass: scale 0 to 100, 0 no effect, 100 complete control; for Plant response rating (0 to 100), Surinam grass: visual evaluation after 12 to 14 days
Description: as §1, §2

[3] = tested on: bermudagrass (Cynodon dactylon); experiment: Test C preemergence; details: for Plant response rating, Bermudagrass: scale 0 to 100, 0 no effect, 100 complete control; for Plant response rating (0 to 100 where 0 is no effect and 100 is complete control), Bermudagrass: visual evaluation after 12 to 14 days
Description: as §1, §2

[4] = tested on: cocklebur (Xanthium strumarium); experiment: Test C preemergence; details: for Plant response rating, Cocklebur: scale 0 to 100, 0 no effect, 100 complete control; for Plant response rating (0 to 100), Cocklebur: visual evaluation after 12 to 14 days
Description: as §1, §2

[5] = tested on: common ragweed (Ambrosia elatior); experiment: Test C preemergence; details: preemergence; for Plant response rating, Ragweed, Common: scale 0 to 100, 0 no effect, 100 complete control
Description: as §1, §2

[6] = tested on: corn (Zea mays); experiment: Test C preemergence; details: for Plant response rating, Corn: scale 0 to 100, 0 no effect, 100 complete control; for Plant response rating (0 to 100), Corn: visual evaluation after 12 to 14 days
Description: as §1, §2

[7] = tested on: crabgrass (Digitaria sanguinalis); experiment: Test C preemergence; details: for Plant response rating, Crabgrass: scale 0 to 100, 0 no effect, 100 complete control; for Plant response rating (0 to 100), Crabgrass: visual evaluation after 12 to 14 days
Description: as §1, §2

[8] = tested on: giant foxtail (Setaria faberii); experiment: Test C preemergence; details: for Plant response rating, Foxtail, Giant: scale 0 to 100, 0 no effect, 100 complete control; for Plant response rating (0 to 100), Foxtail, Giant: visual evaluation after 12 to 14 days
Description: as §1, §2

[9] = tested on: goosegrass (Eleusine indica); experiment: Test C preemergence; details: for Plant response rating, Goosegrass: scale 0 to 100, 0 no effect, 100 complete control; for Plant response rating (0 to 100), Goosegrass: visual evaluation after 12 to 14 days
Description: as §1, §2

[10] = tested on: johnsongrass (Sorghum halepense); experiment: Test C preemergence; details: for Plant response rating, Johnsongrass: scale 0 to 100, 0 no effect, 100 complete control; for Plant response rating (0 to 100), Johnsongrass: visual evaluation after 12 to 14 days
Description: as §1, §2

[11] = tested on: kochia (Kochia scoparia); experiment: Test C preemergence; details: for Plant response rating, Kochia: scale 0 to 100, 0 no effect, 100 complete control; for Plant response rating (0 to 100), Kochia: visual evaluation after 12 to 14 days
Description: as §1, §2

[12] = tested on: morningglory (Ipomoea hederacea); experiment: Test C preemergence; details: for Plant response rating, Morningglory: scale 0 to 100, 0 no effect, 100 complete control
Description: as §1, §2

[13] = tested on: pigweed (Amaranthus retroflexus); experiment: Test C preemergence; details: preemergence; for Plant response rating, Pigweed: scale 0 to 100, 0 no effect, 100 complete control
Description: as §1, §2

[14] = tested on: soybean (Glycine max); experiment: Test C preemergence; details: preemergence; for Plant response rating, Soybean: scale 0 to 100, 0 no effect, 100 complete control
Description: as §1, §2

[15] = tested on: velvetleaf (Abutilon theophrasti); experiment: Test C preemergence; details: preemergence; for Plant response rating, Velvetleaf: scale 0 to 100, 0 no effect, 100 complete control
Description: as §1, §2

[16] = tested on: woolly cupgrass (Eriochloa villosa); experiment: Test C preemergence; details: for Plant response rating, Cupgrass, Woolly: scale 0 to 100, 0 no effect, 100 complete control; for Plant response rating (0 to 100), Cupgrass, Woolly: visual evaluation after 12 to 14 days
Description: as §1, §2

[17] = tested on: yellow nutsedge (Cyperus esculentus); experiment: Test C preemergence; details: for Plant response rating, Nutsedge: scale 0 to 100, 0 no effect, 100 complete control
Description: as §1, §2

[18] = tested on: barnyardgrass (Echinochloa crus-galli); experiment: Test C flooded paddy test; details: for Barnyardgrass plant response rating: Flooded Paddy, scale 0 to 100, 0 no effect, 100 complete control; for Plant response rating, Barnyardgrass: flooded paddy test, scale 0 to 100 (0 no effect, 100 complete control)
How it was run: (§3)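 Plants were grown to the 2-leaf stage under flooded paddy conditions and treated. They were then kept in a greenhouse for 12 to 14 days and visually rated against untreated controls on a 0–100 scale, where 0 is no effect and 100 is complete control.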

[19] = tested on: rice (Oryza saliva); experiment: Test C flooded paddy test; details: for Rice plant response rating: Flooded Paddy, scale 0 to 100, 0 no effect, 100 complete control; for Plant response rating, Rice: flooded paddy test, scale 0 to 100 (0 no effect, 100 complete control)
How it was run: as §3

[20] = tested on: Sunflower; experiment: Test C preemergence; details: Rate 500 g/ha, visual evaluation after 12 to 14 days
[21] = Rate 500 g/ha, visual evaluation after 12 to 14 days
[22] = preemergence, Rate 500 g/ha, visual evaluation after 12 to 14 days

`CC1(c2ccn(C3SCN(c4cccc(C(F)(F)F)c4)C3=O)n2)CC1` (stereo not drawn) [Compound 64] was tested, and the “Plant response rating, Nightshade” value ([1]; Rate 62 g/ha) was 30, the “Plant response rating, Nightshade” value ([1]; Rate 125 g/ha) was 70 and the “Plant response rating, Nightshade” value ([1]; Rate 250 g/ha) was 90. The “Plant response rating, Surinam grass” value ([2]; Rate 62 g/ha) was 0, the “Plant response rating (0 to 100), Surinam grass” value ([2]; preemergence, Rate 250 g/ha) was 90 and the “Plant response rating (0 to 100), Surinam grass” value ([2]; preemergence, Rate 500 g/ha) was 100. The “Plant response rating, Surinam grass” value ([2]; preemergence, Rate 125 g/ha) was 50, the “Plant response rating, Bermudagrass” value ([3]; Rate 62 g/ha) was 100 and the “Plant response rating (0 to 100 where 0 is no effect and 100 is complete control), Bermudagrass” value ([3]; preemergence, Rate 250 g/ha) was 100. The “Plant response rating (0 to 100 where 0 is no effect and 100 is complete control), Bermudagrass” value ([3]; preemergence, Rate 500 g/ha) was 100, the “Plant response rating, Bermudagrass” value ([3]; preemergence, Rate 125 g/ha) was 100 and the “Plant response rating, Cocklebur” value ([4]; Rate 62 g/ha) was 0. The “Plant response rating (0 to 100), Cocklebur” value ([4]; preemergence, Rate 250 g/ha) was 20, the “Plant response rating (0 to 100), Cocklebur” value ([4]; preemergence, Rate 500 g/ha) was 30 and the “Plant response rating, Cocklebur” value ([4]; preemergence, Rate 125 g/ha) was 0. The “Plant response rating (0 to 100), Ragweed, Common” value [5, 21] was 90, the “Plant response rating, Ragweed, Common” value ([5]; Rate 125 g/ha) was 50 and the “Plant response rating, Ragweed, Common” value ([5]; Rate 250 g/ha) was 80. For the same compound, the “Plant response rating, Corn” value ([6]; Rate 62 g/ha) was 0, the “Plant response rating (0 to 100), Corn” value ([6]; preemergence, Rate 250 g/ha) was 30 and the “Plant response rating (0 to 100), Corn” value ([6]; preemergence, Rate 500 g/ha) was 40. For the same compound, the “Plant response rating, Corn” value ([6]; preemergence, Rate 125 g/ha) was 0, the “Plant response rating, Crabgrass” value ([7]; Rate 62 g/ha) was 100 and the “Plant response rating (0 to 100), Crabgrass” value ([7]; preemergence, Rate 250 g/ha) was 100. For the same compound, the “Plant response rating (0 to 100), Crabgrass” value ([7]; preemergence, Rate 500 g/ha) was 100, the “Plant response rating, Crabgrass” value ([7]; preemergence, Rate 125 g/ha) was 100 and the “Plant response rating, Foxtail, Giant” value ([8]; Rate 62 g/ha) was 0. The “Plant response rating (0 to 100), Foxtail, Giant” value ([8]; preemergence, Rate 250 g/ha) was 100, the “Plant response rating (0 to 100), Foxtail, Giant” value ([8]; preemergence, Rate 500 g/ha) was 30 and the “Plant response rating, Foxtail, Giant” value ([8]; preemergence, Rate 125 g/ha) was 50. The “Plant response rating, Goosegrass” value ([9]; Rate 62 g/ha) was 100, the “Plant response rating (0 to 100), Goosegrass” value ([9]; preemergence, Rate 250 g/ha) was 100 and the “Plant response rating (0 to 100), Goosegrass” value ([9]; preemergence, Rate 500 g/ha) was 100. For the same compound, the “Plant response rating, Goosegrass” value ([9]; preemergence, Rate 125 g/ha) was 100, the “Plant response rating, Johnsongrass” value ([10]; Rate 62 g/ha) was 30 and the “Plant response rating (0 to 100), Johnsongrass” value ([10]; preemergence, Rate 250 g/ha) was 90. For the same compound, the “Plant response rating (0 to 100), Johnsongrass” value ([10]; preemergence, Rate 500 g/ha) was 100, the “Plant response rating, Johnsongrass” value ([10]; preemergence, Rate 125 g/ha) was 70 and the “Plant response rating, Kochia” value ([11]; Rate 62 g/ha) was 90. For the same compound, the “Plant response rating (0 to 100), Kochia” value ([11]; preemergence, Rate 250 g/ha) was 100, the “Plant response rating (0 to 100), Kochia” value ([11]; preemergence, Rate 500 g/ha) was 100 and the “Plant response rating, Kochia” value ([11]; preemergence, Rate 125 g/ha) was 100. For the same compound, the “Plant response rating, Morningglory” value ([12]; Rate 62 g/ha) was 40, the “Plant response rating (0 to 100), Morningglory” value [12, 22] was 60 and the “Plant response rating, Morningglory” value ([12]; preemergence, Rate 125 g/ha) was 40. For the same compound, the “Plant response rating, Morningglory” value ([12]; preemergence, Rate 250 g/ha) was 40, the “Plant response rating (0 to 100), Pigweed” value [13, 21] was 100 and the “Plant response rating, Pigweed” value ([13]; Rate 125 g/ha) was 100. For the same compound, the “Plant response rating, Pigweed” value ([13]; Rate 250 g/ha) was 100, the “Plant response rating (0 to 100), Soybean” value [14, 21] was 30 and the “Plant response rating, Soybean” value ([14]; Rate 125 g/ha) was 20. The “Plant response rating, Soybean” value ([14]; Rate 250 g/ha) was 20, the “Plant response rating (0 to 100), Velvetleaf” value [15, 21] was 50 and the “Plant response rating, Velvetleaf” value ([15]; Rate 125 g/ha) was 0. The “Plant response rating, Velvetleaf” value ([15]; Rate 250 g/ha) was 20, the “Plant response rating, Cupgrass, Woolly” value ([16]; Rate 62 g/ha) was 30 and the “Plant response rating (0 to 100), Cupgrass, Woolly” value ([16]; preemergence, Rate 250 g/ha) was 90. For the same compound, the “Plant response rating (0 to 100), Cupgrass, Woolly” value ([16]; preemergence, Rate 500 g/ha) was 100, the “Plant response rating, Cupgrass, Woolly” value ([16]; preemergence, Rate 125 g/ha) was 50 and the “Plant response rating, Nutsedge” value ([17]; Rate 62 g/ha) was 0. For the same compound, the “Plant response rating (0 to 100), Nutsedge” value [17, 22] was 50, the “Plant response rating, Nutsedge” value ([17]; preemergence, Rate 125 g/ha) was 0 and the “Plant response rating, Nutsedge” value ([17]; preemergence, Rate 250 g/ha) was 50. For the same compound, the “Barnyardgrass plant response rating” value ([18]; Rate 250 g/ha) was 80, the “Barnyardgrass plant response rating” value ([18]; Rate 500 g/ha) was 100 and the “Plant response rating, Barnyardgrass” value ([18]; Rate 62 g/ha) was 20. For the same compound, the “Plant response rating, Barnyardgrass” value ([18]; Rate 125 g/ha) was 80, the “Rice plant response rating” value ([19]; Rate 250 g/ha) was 80 and the “Rice plant response rating” value ([19]; Rate 500 g/ha) was 90. The “Plant response rating, Rice” value ([19]; Rate 62 g/ha) was 0, the “Plant response rating, Rice” value ([19]; Rate 125 g/ha) was 20 and the “Plant response rating (0 to 100), Sunflower” value [20] was 60.
